Measurements reported in ChEMBL document CHEMBL4184248, “A multicomponent approach in the discovery of indoleamine 2,3-dioxygenase 1 inhibitors: Synthesis, biological investigation and docking studies” (Bioorg Med Chem Lett, 2018).
pIC50: −log10 of the molar value.

Tests used:
[1] = tested on: A-375; assay: Cytotoxicity in human A375 cells assessed as cell viability at 10 uM incubated for 48 hrs by MTT assay; type: functional; details: A-375, 48 h, read-out: Activity
[2] = target: T1, Indoleamine 2,3-dioxygenase 1 (Homo sapiens, UniProt P14902); assay: Inhibition of human recombinant IDO1 assessed as reduction in kynurenine production at 1 uM using L-tryptophan incubated for 60 mins by Ehrlich's reagent based assay
Target sequence in this assay (P14902 whole entry, looked up): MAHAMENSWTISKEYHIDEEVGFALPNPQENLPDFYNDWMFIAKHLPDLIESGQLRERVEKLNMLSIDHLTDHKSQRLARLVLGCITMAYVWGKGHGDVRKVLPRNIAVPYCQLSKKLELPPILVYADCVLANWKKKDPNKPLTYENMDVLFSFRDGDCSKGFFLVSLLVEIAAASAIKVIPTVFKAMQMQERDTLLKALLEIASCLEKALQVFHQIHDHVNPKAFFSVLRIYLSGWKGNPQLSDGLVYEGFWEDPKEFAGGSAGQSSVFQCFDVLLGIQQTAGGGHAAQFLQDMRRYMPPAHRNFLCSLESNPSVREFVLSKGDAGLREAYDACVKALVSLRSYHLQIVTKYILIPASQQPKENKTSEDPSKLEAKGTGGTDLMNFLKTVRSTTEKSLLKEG

[3] = target: T1, Indoleamine 2,3-dioxygenase 1; assay: Inhibition of human recombinant IDO1 assessed as reduction in kynurenine production using L-tryptophan incubated for 60 mins by Ehrlich's reagent based assay
Target sequence in this assay (P14902 whole entry): as the sequence (P14902 whole entry, looked up) above

Row | Structure (SMILES) | viability at 10 µM [1] [%] | inhibition [2] [%] | pIC50 [3]
1 | O=C(COC(=O)Cc1ccc(O)c(O)c1)NCc1cnc2scc(-c3ccc(Br)cc3)n12 | 99 | 40 | –
2 | CN(CC(=O)NCc1cnc2scc(-c3ccc(Br)cc3)n12)C(=O)Cc1ccc(Cl)cc1 | 64 | 51 | –
3 | O=C(COC(=O)Cc1ccc(Cl)cc1)NCc1cnc2scc(-c3ccc(Br)cc3)n12 | 100 | 32 | –
4 | N#Cc1ccc(NC(=O)NCc2cnc3scc(-c4ccc(Br)cc4)n23)cc1 | 99 | 97 | 7.10
5 | CN(CC(=O)NCc1cnc2scc(-c3ccc(Br)cc3)n12)C(=O)Cc1ccc(O)cc1 | 91 | 55 | –
6 | O=C(CNC(=O)Cc1ccccc1)NCc1cnc2scc(-c3ccc(Br)cc3)n12 | 100 | 46 | –
7 | O=C(COC(=O)Cc1cccc(Cl)c1)NCc1cnc2scc(-c3ccc(Br)cc3)n12 | 100 | 39 | –
8 | CN(CC(=O)NCc1cnc2scc(-c3ccc(Br)cc3)n12)C(=O)Cc1cccc([N+](=O)[O-])c1 | 93 | 65 | 6.20
9 | Cn1cc(C[C@H](N)C(=O)O)c2ccccc21 [(L)-1-METHYLTRYPTOPHAN] | 100 | – | –
10 | N#Cc1cccc(CC(=O)OCC(=O)NCc2cnc3scc(-c4ccc(Br)cc4)n23)c1 | 97 | 29 | –
11 | O=C(COC(=O)Cc1ccccc1O)NCc1cnc2scc(-c3ccc(Br)cc3)n12 | 100 | 73 | 6.06
12 | O=C(COC(=O)Cc1ccccc1[N+](=O)[O-])NCc1cnc2scc(-c3ccc(Br)cc3)n12 | 100 | 41 | –
13 | O=C(COC(=O)Cc1ccc([N+](=O)[O-])cc1)NCc1cnc2scc(-c3ccc(Br)cc3)n12 | 100 | 39 | –
14 | N[C@H](C(=O)NCC(=O)NCc1cnc2scc(-c3ccc(Br)cc3)n12)c1ccccc1 | 96 | 10 | –
15 | CN(CC(=O)NCc1cnc2scc(-c3ccc(Br)cc3)n12)C(=O)Cc1cccc(C#N)c1 | 90 | 0 | –
16 | N#Cc1ccc(CC(=O)OCC(=O)NCc2cnc3scc(-c4ccc(Br)cc4)n23)cc1 | 100 | 69 | 6.47
17 | NS(=O)(=O)NCCNc1nonc1/C(=N/O)Nc1ccc(F)c(Br)c1 [EPACADOSTAT] | 100 | – | –
18 | O=C(COC(=O)Cc1ccccc1)NCc1cnc2scc(-c3ccc(Br)cc3)n12 | 98 | 72 | 6.24
19 | CN(CC(=O)NCc1cnc2scc(-c3ccc(Br)cc3)n12)C(=O)Cc1cccc(O)c1 | 100 | 63 | 6.35
20 | CN(CC(=O)NCc1cnc2scc(-c3ccc(Br)cc3)n12)C(=O)Cc1ccccc1[N+](=O)[O-] | 92 | 67 | 6.14

Row | Structure (SMILES) | viability at 10 µM [1] [%] | inhibition [2] [%] | pIC50 [3]
21 | CN(CC(=O)NCc1cnc2scc(-c3ccc(Br)cc3)n12)C(=O)c1ccccc1 | 96 | 50 | –
22 | CN(CC(=O)NCc1cnc2scc(-c3ccc(Br)cc3)n12)C(=O)c1ccc(C#N)cc1 | 87 | 47 | –
23 | O=C(COC(=O)Cc1cccc(O)c1)NCc1cnc2scc(-c3ccc(Br)cc3)n12 | 100 | 59 | –
24 | COc1cccc(C(=O)N(C)CC(=O)NCc2cnc3scc(-c4ccc(Br)cc4)n23)c1 | 98 | 48 | –
25 | O=C(COC(=O)Cc1cccc([N+](=O)[O-])c1)NCc1cnc2scc(-c3ccc(Br)cc3)n12 | 100 | 50 | –
26 | CN(CC(=O)NCc1cnc2scc(-c3ccc(Br)cc3)n12)C(=O)Cc1ccccc1 | 100 | 62 | 6.16
27 | CN(CC(=O)NCc1cnc2scc(-c3ccc(Br)cc3)n12)C(=O)Cc1cccc(Cl)c1 | 83 | 39 | –
28 | CN(CC(=O)NCc1cnc2scc(-c3ccc(Br)cc3)n12)C(=O)Cc1ccc([N+](=O)[O-])cc1 | 100 | 66 | 6.09
29 | CN(CC(=O)NCc1cnc2scc(-c3ccc(Br)cc3)n12)C(=O)Cc1ccccc1Cl | 71 | 41 | –
30 | CN(CC(=O)NCc1cnc2scc(-c3ccc(Br)cc3)n12)C(=O)c1ccc([N+](=O)[O-])cc1 | 100 | 45 | –
31 | CN(CC(=O)NCc1cnc2scc(-c3ccc(Br)cc3)n12)C(=O)Cc1ccc(O)c(O)c1 | 99 | 34 | –
32 | N[C@H](C(=O)NCC(=O)NCc1cnc2scc(-c3ccc(Br)cc3)n12)c1ccc(O)cc1 | 100 | 0 | –
33 | O=C(COC(=O)Cc1ccccc1Cl)NCc1cnc2scc(-c3ccc(Br)cc3)n12 | 100 | 46 | –
34 | CN(CC(=O)NCc1cnc2scc(-c3ccc(Br)cc3)n12)C(=O)Cc1ccccc1O | 88 | 0 | –
35 | COc1ccc(C(=O)N(C)CC(=O)NCc2cnc3scc(-c4ccc(Br)cc4)n23)cc1 | 82 | 49 | –
36 | CC(=O)N(C)CC(=O)NCc1cnc2scc(-c3ccc(Br)cc3)n12 | 98 | 21 | –
37 | O=C(COC(=O)Cc1ccc(O)cc1)NCc1cnc2scc(-c3ccc(Br)cc3)n12 | 100 | 89 | 6.70
38 | O=C(CO)NCc1cnc2scc(-c3ccc(Br)cc3)n12 | 97 | 48 | –
39 | CN(CC(=O)NCc1cnc2scc(-c3ccc(Br)cc3)n12)C(=O)Cc1ccc(C#N)cc1 | 92 | 18 | –
